Assay results as given in patent publication US5373089A, “Oxytocin antagonist” (Northwestern University, priority 1993, dated 1994).
Starred links: 1 amine or outer side, 2 acyl side, 3 side chain; linkers in the order of their positions; H or OH if unused. Positions of bridges follow the written chain, without caps; N, C: chain ends. Non-standard residues stand in square brackets, D forms with d. Residues, ends and D or L forms follow the SMILES beside them. X1 = O=C(CC1(S[*:2])CCCCC1)[*:1]

Assays:
ADH = ADH bioassay (alteration in urine output due to ADH); assay type: in vivo; conditions: for ADH Bioassay pA2: in vivo
Experimental: The above compound was also tested for antagonism to vasopressin. Anti-ADH activity can be determined by measuring the alteration in urine output due to ADH in the presence and absence of the antagonist. A suitable ADH-assay is described in Sawyer, et al., Endocrinology, 63:694 (1958). […] The ratio of oxytocin antagonism to ADH antagonism was very high, viz. over 1, 866, as compared with 200 for the compositions disclosed in the parent applications.
The anti-ADH activity is measured by the alteration in urine […] in the presence and absence of the antagonist to determine the specificity of the antagonist. The anti-ADH assay is described in Sawyer, et al., Endocrinology, 63:694 (1958).

ESTROUS RAT UTERUS = assay: Oxytocic bioassay (isolated rat uterus, integrated contraction response to oxytocin); assay type: cell-based; conditions: for Oxytocic Bioassay pA2: virgin rat uterus in natural estrus, Munsick's buffer 0.5 mM Mg++, integrated contraction area
Text: The protocol used for the oxytocin bioassay procedure is derived from procedures described in a paper by Sawyer, et al., Endocrinology, 106:81 (1980), which in turn was based on reports of Munsick, Brit. J. Pharmacol., 3:328 (1960), and Holton, Brit. J. Pharmacol., 3:328 (1948). The assay calculations for the pA2 estimates are described by Schild, British J. Pharmacology, 2:189 (1947). The major difference in the present procedure from those reported by others in the field is that the area under the contraction is integrated where most other techniques calculate the amplitude. Integration provides much more consistent and reliable results although the pA2 estimates are approximately an order of magnitude lower than those reported using amplitude of the contraction as the endpoint.
1. Animals--a 1.5 cm piece of uterus from a virgin rat (Holtzman) in natural estrus is used for the assay.
2. Buffer/Assay Bath--The buffer used is Munsicks. […] The buffer is gassed continuously with 95% oxygen; 5% carbon dioxide giving a pH of 7.4. The temperature of the assay bath is 37° C. A 10 ml assay bath is used that contains a water jacket for maintaining the temperature and inlet and outlet spikets for adding and removing buffer.
3. Polygraph/transducer--The piece of uterine tissue used for the assay is anchored at one end and connected to a Statham Strain Gauge Force Transducer at the other end which in turn is attached to a Grass Polygraph Model 79 for monitoring the contractions.
4. Assay Protocol. (a) The tissue is equilibrated in the assay bath for one hour with washing with new buffer every fifteen minutes. One gram of tension is kept on the tissue at all times.
(b) The tissue is stimulated initially with oxytocin at 10 nM to "acclimate" the tissue and with […] KCl to determine the maximum contractile response.
(d) The tissue is exposed to oxytocin (Calbiochemical, San Diego, Calif.) for one minute and washed out. There is a three minute interval before addition of the next dose of the agonist or antagonist. When the antagonist is tested, it is given five minutes before the agonist. The agonist is given for one minute. All responses are integrated using a 7P10 Grass Integrator. This is the major difference between the present protocol and others in the literature which usually measure amplitude of the contractions as the response. A single concentration of oxytocin, equal to 80% of the maximum response, is used to test the antagonist. […] This is repeated three times for each dose of antagonist for a three point assay.
(e) Calculations for pA2 : The dose-response (DR) ratios are calculated for antagonist and a Schild's Plot is performed by plotting the Log (DR-1) vs. Log of antagonist concentration. The line plotted is calculated by least squares regression analysis. The pA2 is the concentration of antagonist at the point where the regression line crosses the 0 point of the Log (DR-1) ordinate. The pA2 is the negative Log of the concentration of antagonist that will reduce the response to the agonist by one-half.
The protocol used for the oxytocin bioassay procedure is derived from procedures described in a paper by Sawyer, et al., Endocrinology, 106:81 (1980), which in turn was based on reports of Munsick, Brit. J. Pharmacol., 3:328 (1960), and Holton, Brit. J. Pharmacol., 3:328 (1948). The assay calculations for the pA2 estimates are described by Schild, Brit. J. Pharmacol. (1947). The major difference in procedure from those previously reported was the integration of the area under the contraction instead of merely calculating the amplitude. Integration provides more consistent and reliable results, although the pA2 estimates are about an order of magnitude lower than those reported using amplitude of the contraction as the endpoint.
A 1.5 cm piece of uterus from a virgin rat (Holtzman) in natural estrus is used for the assay.
The buffer used is Munsick's. […]

Row | Compound | ADH Bioassay pA2 (ADH) | Oxytocic Bioassay pA2 (ESTROUS RAT UTERUS) | activity as a vasopressin antagonist (ADH; result in words) | OXYTOCIC BIOASSAY ED50 (ESTROUS RAT UTERUS; estrous rat uterus, Table 3) [nM] | BIOASSAY ED50 (ESTROUS RAT UTERUS; estrous rat uterus, Table 4) [nM] | BIOASSAY (ANTI/OTA) (ESTROUS RAT UTERUS; ratio to ANTAG I, rat oxytocic bioassay) | Oxytocic Bioassay pA2 (ESTROUS RAT UTERUS; D-Trp^2,Pen^6,Arg^8 ] oxytocin)
1 | CC[C@H](C)[C@@H]1NC(=O)[C@H](Cc2ccccc2)NC(=O)[C@@H](Cc2c[nH]c3ccccc23)NC(=O)CC2(CCCCC2)SSC[C@@H](C(=O)N2CCC[C@H]2C(=O)N[C@@H](CCCNC(=N)N)C(=O)NCC(N)=O)NC(=O)[C@H](CC(N)=O)NC1=O [Compound B, [Pmp^1,D-Trp^2,Phe^3,Ile^4,Arg^8] oxytocin] ([dW]FINCPRG-NH2; linker N-5 via X1) | 7.40 | 7.51 | – | – | – | – | –
2 | [(S)Pmp^1,D-Trp^2,Pen^6,Arg^8 ] oxytocin [Compound D] | < 5.75 | 8.86 | very low activity | 1.38 | 1.38 | 22.1 | greater than 8.86
